Data taken from the supplement of paper PMC11451515.

Columns and labels:
Conditions in all cases: 48 h
NOMO1 [1] = test: cell viability relative to DMSO control; higher = less cytotoxic
In short: (§1)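 Cells were incubated for 48 h at 37°C before CellTiter-Glo One luminescence was read. The cells were NOMO1 or SEM (500 cells/well) or P12-Ichikawa (1000 cells/well) leukemia cells, adapted for at least four passages in each medium and seeded in 1536-well plates (5 μl). Dosing used library compounds in DMSO applied by pin over 11 threefold points, 47 μM to 0.79 nM. Viability is the per-plate percentage of DMSO wells, with cell-free wells as background.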

P12-Ichikawa [2] = test: as above
In short: as §1

SEM cells [3] = test: as above
In short: as §1

NOMO1 [4] = test: AUC of viability dose-response curve (% viability x log10 dose units); higher = less sensitive
In short: (§2)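 Area under the curve was integrated by trapezoidal rule from a log-logistic fit of normalised viability, with curves exceeding full viability scaled and quality-control failures removed. The fit had four parameters over log10 doses. Viability came from CellTiter-Glo One luminescence, normalised per plate to DMSO and cell-free wells, after leukemia cells adapted to each medium (500 or 1000 cells/well, 1536-well plates) were exposed to library compounds in DMSO for 48 h at 37°C. The 11 threefold doses ran from 47 μM to 0.79 nM.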

P12-Ichikawa [5] = test: as above
In short: as §2

SEM cells [6] = test: as above
In short: as §2

N=C(N)NC(=O)c1nc(Cl)c(N)nc1N
cell viability [%]
Conditions	NOMO1 [1]	P12-Ichikawa [2]	SEM cells [3]
HPLM + 10% dialyzed FBS, 0.000781 µM	110	106	101
HPLM + 10% dialyzed FBS, 0.00234 µM	114	116	104
HPLM + 10% dialyzed FBS, 0.00702 µM	132	114	120
HPLM + 10% dialyzed FBS, 0.0211 µM	133	127	111
HPLM + 10% dialyzed FBS, 0.0632 µM	134	120	114
HPLM + 10% dialyzed FBS, 0.19 µM	130	116	104
HPLM + 10% dialyzed FBS, 0.569 µM	133	130	136
HPLM + 10% dialyzed FBS, 1.71 µM	54.1	120	114
HPLM + 10% dialyzed FBS, 5.12 µM	35.8	59.8	129
HPLM + 10% dialyzed FBS, 15.4 µM	35	16.9	124
HPLM + 10% dialyzed FBS, 46.1 µM	36.9	9.59	123
RPMI 5 mM glucose + 10% FBS, 0.000781 µM	–	–	101
RPMI 5 mM glucose + 10% FBS, 0.00234 µM	–	–	107
RPMI 5 mM glucose + 10% FBS, 0.00702 µM	–	–	108
RPMI 5 mM glucose + 10% FBS, 0.0211 µM	–	–	108
RPMI 5 mM glucose + 10% FBS, 0.0632 µM	–	–	118
RPMI 5 mM glucose + 10% FBS, 0.19 µM	–	–	119
RPMI 5 mM glucose + 10% FBS, 0.569 µM	–	–	117
RPMI 5 mM glucose + 10% FBS, 1.71 µM	–	–	113
RPMI 5 mM glucose + 10% FBS, 5.12 µM	–	–	113
RPMI 5 mM glucose + 10% FBS, 15.4 µM	–	–	114
RPMI 5 mM glucose + 10% FBS, 46.1 µM	–	–	120
RPMI 5 mM glucose + 10% dialyzed FBS, 0.000781 µM	112	104	101
RPMI 5 mM glucose + 10% dialyzed FBS, 0.00234 µM	134	114	122
RPMI 5 mM glucose + 10% dialyzed FBS, 0.00702 µM	123	115	110
RPMI 5 mM glucose + 10% dialyzed FBS, 0.0211 µM	134	124	108
RPMI 5 mM glucose + 10% dialyzed FBS, 0.0632 µM	133	115	126
RPMI 5 mM glucose + 10% dialyzed FBS, 0.19 µM	129	126	124
RPMI 5 mM glucose + 10% dialyzed FBS, 0.569 µM	136	130	120
RPMI 5 mM glucose + 10% dialyzed FBS, 1.71 µM	72.5	128	126
RPMI 5 mM glucose + 10% dialyzed FBS, 5.12 µM	33.3	116	119
RPMI 5 mM glucose + 10% dialyzed FBS, 15.4 µM	29.2	56.1	116
RPMI 5 mM glucose + 10% dialyzed FBS, 46.1 µM	29.1	17.5	121

AUC of viability dose-response curve
Conditions	NOMO1 [4]	P12-Ichikawa [5]	SEM cells [6]
HPLM + 10% dialyzed FBS	364	389	446
RPMI 5 mM glucose + 10% FBS	342	393	464
RPMI 5 mM glucose + 10% dialyzed FBS	365	430	453

Cc1ccc(O)c(C(CCN(C(C)C)C(C)C)c2ccccc2)c1.Cl (stereo unspecified)
P12-Ichikawa [2], HPLM + 10% dialyzed FBS
Conditions	cell viability [%]
0.000781 µM	121
0.00234 µM	122
0.00702 µM	131
0.0211 µM	137
0.0632 µM	140
0.19 µM	128
0.569 µM	129
1.71 µM	134
5.12 µM	134
15.4 µM	136
46.1 µM	127

AUC of viability dose-response curve
Conditions	NOMO1 [4]	P12-Ichikawa [5]	SEM cells [6]
HPLM + 10% dialyzed FBS	410	465	461
RPMI 5 mM glucose + 10% FBS	430	470	477
RPMI 5 mM glucose + 10% dialyzed FBS	435	475	463

Cc1c(O)cccc1C(=O)N[C@@H](CSc1ccccc1)[C@H](O)CN1C[C@H]2CCCC[C@H]2C[C@H]1C(=O)NC(C)(C)C
AUC of viability dose-response curve
Conditions	NOMO1 [4]	P12-Ichikawa [5]	SEM cells [6]
HPLM + 10% dialyzed FBS	465	447	426
RPMI 5 mM glucose + 10% FBS	459	459	453
RPMI 5 mM glucose + 10% dialyzed FBS	455	461	455

CN(C)NC(=O)CCC(=O)O
AUC of viability dose-response curve
Conditions	NOMO1 [4]	P12-Ichikawa [5]	SEM cells [6]
HPLM + 10% dialyzed FBS	464	464	468
RPMI 5 mM glucose + 10% FBS	467	464	464
RPMI 5 mM glucose + 10% dialyzed FBS	471	466	474

CCc1cccc(CC)c1NC(=O)N1Cc2[nH]nc(NC(=O)c3ccc(N4CCN(C)CC4)cc3)c2C1
SEM cells [3], HPLM + 10% dialyzed FBS
Conditions	cell viability [%]
0.000781 µM	100
0.00234 µM	121
0.00702 µM	130
0.0211 µM	128
0.0632 µM	133
0.19 µM	138
0.569 µM	113
1.71 µM	89.2
5.12 µM	57.5
15.4 µM	22.1
46.1 µM	7.86

AUC of viability dose-response curve
Conditions	NOMO1 [4]	P12-Ichikawa [5]	SEM cells [6]
HPLM + 10% dialyzed FBS	415	356	372
RPMI 5 mM glucose + 10% FBS	403	361	341
RPMI 5 mM glucose + 10% dialyzed FBS	394	373	344

C[C@H]1[C@H](OC(=O)CCC(=O)O)O[C@@H]2O[C@@]3(C)CC[C@H]4[C@H](C)CC[C@@H]1[C@@]24OO3
AUC of viability dose-response curve
Conditions	NOMO1 [4]	P12-Ichikawa [5]	SEM cells [6]
HPLM + 10% dialyzed FBS	350	372	393
RPMI 5 mM glucose + 10% FBS	342	360	371
RPMI 5 mM glucose + 10% dialyzed FBS	335	351	378

CC(=O)Nc1nc(C)c(-c2ccc(Cl)c([S+](=O)([O-])NCCO)c2)s1
AUC of viability dose-response curve
Conditions	NOMO1 [4]	P12-Ichikawa [5]	SEM cells [6]
HPLM + 10% dialyzed FBS	364	374	366
RPMI 5 mM glucose + 10% FBS	385	326	345
RPMI 5 mM glucose + 10% dialyzed FBS	362	340	344

C=C1/C(=C\C=C2/CCC[C@]3(C)[C@@H]([C@H](C)/C=C/[C@H](C)C(C)C)CC[C@@H]23)C[C@@H](O)C[C@@H]1O
AUC of viability dose-response curve
Conditions	NOMO1 [4]	P12-Ichikawa [5]	SEM cells [6]
HPLM + 10% dialyzed FBS	398	399	446
RPMI 5 mM glucose + 10% FBS	423	404	438
RPMI 5 mM glucose + 10% dialyzed FBS	416	408	450
